Patent publication US11849728B2, “Method for controlling soybean rust fungus having resistance against Qo site inhibitor” (SUMITOMO CHEMICAL COMPANY, LIMITED, priority 2018, dated 2023)

Tested on: soybean rust fungus (Phakopsora pachyrhizi) having an amino acid substitution of F129L on mitochondrial cytochrome b protein
Test: Leaf disk test for control of soybean rust (Test Example 1 / Comparative Test Example 1)
Type: in vivo
Settings: method of Test Example 1
Method: Soybean leaf (cv; Kurosengoku) was punched out to 1 cm diameter to prepare a leaf disk. Each 1 mL of an agar medium (agar concentration 1.2%) was dispensed in 24 well microplate. A piece of the leaf disk was placed on each well. To a mixture of 0.5 μL of Sorpol (registered trademark) 1200KX, 4.5 μL of DMSO, and 5 μL of xylene was added 20 μL of a solution containing 10000 ppm of the test compound in DMSO. The resulting mixture was diluted with ion exchange water to prepare a spray solution containing a predetermined concentration of the test compound. The spray solution was sprayed in 10 μL per one leaf disk. After 1 day, an aqueous suspension of spores of soybean rust fungus (Phakopsora pachyrhizi) having an amino acid substitution of F129L on mitochondrial cytochrome b protein (1.0×10^5/mL) was inoculated onto the leaf disks. After the inoculation, the microplate was placed in a growth chamber (light on for 6 hours, light off for 18 hours, 23° C. temperature, 60% humidity). After 1 day, the leaf disks were air-dried to disappear water droplets on the surface of the leaf disk, and the microplate was placed again in the growth chamber for 12 days. Thereafter, a lesion area of soybean rust disease was assessed. […] Here the untreated means that the spray solution containing the test compound was not sprayed onto the leaf disk.
The test was conducted by using as a test compound the compound 3 or 8 of the present invention, the present compound 6, 12, 13, 22, 38, 40, 48, 51, 64 or 84, pyraclostrobin, azoxystrobin, picoxystrobin, orysastrobin, dimoxystrobin, metominostrobin, or pyribencarb at 12.5 ppm or 3.1 ppm according to a method described in the Test Example 1. The results are indicated in [Table A], [Table B], and [Table C].

| Compound | Lesion area (%) (3.1 ppm) | Lesion area (%) (12.5 ppm) |
| --- | --- | --- |
| CO/C=C(\Oc1cc(/C=C/C2CC2)ccc1C)C(=O)OC [Compound 3 of the present invention] | 10% | 0% |
| CO/N=C(\Cc1cc(C#CC(C)(C)C)ccc1C)C(=O)OC [Present Compound 6] | 0% | 0% |
| CNC(=O)/C(Cc1cc(C#CC(C)(C)OC)ccc1C)=N/OC [Present Compound 12] | 0% | 0% |
| COc1nn(C)c(=O)n1Cc1cc(C#C[Si](C)(C)C)ccc1C [Present Compound 13] | 30% | 0% |
| CO/C=C(\Oc1cc(-c2ccc(F)cc2)ccc1C)C(=O)OC [Present Compound 22] | 10% | 0% |
| Cc1ccc(-c2ccccc2)cc1Cn1c(C(F)F)nn(C)c1=O [Present Compound 40] | 0% | 0% |
| CO/C=C(\Oc1cc(/C(C)=N/OCc2cccc(C)c2)ccc1C)C(=O)OC [Present Compound 48] |  | 0% |
| CCCO/N=C(\C)c1ccc(C)c(C/C(=N\OC)C(=O)NC)c1 [Present Compound 51] |  | 0% |
| CO/C=C(\Oc1cc(-c2cccs2)ccc1C)C(=O)OC [Present Compound 64] | 10% | 0% |
| CO/C=C(\Oc1cc(/C(C)=N/OCC2CCC2)ccc1C)C(=O)OC [Present Compound 84] |  | 0% |
| CO/C=C(/C(=O)OC)c1ccccc1Oc1cc(Oc2ccccc2C#N)ncn1 [azoxystrobin, reference compound] | 100% | 100% |
| CNC(=O)/C(=N/OC)c1ccccc1COc1cc(C)ccc1C [dimoxystrobin, reference compound] | 100% | 100% |
| CNC(=O)/C(=N/OC)c1ccccc1Oc1ccccc1 [metominostrobin, reference compound] | 100% | 100% |
| CNC(=O)/C(=N/OC)c1ccccc1CO/N=C(C)/C(=N/OC)C(/C)=N/OC [orysastrobin, reference compound] | 100% | 100% |
| CO/C=C(/C(=O)OC)c1ccccc1COc1cccc(C(F)(F)F)n1 [picoxystrobin, reference compound] | 100% | 100% |
| COC(=O)N(OC)c1ccccc1COc1ccn(-c2ccc(Cl)cc2)n1 [pyraclostrobin, reference compound] | 100% | 100% |
| COC(=O)NCc1cc(/C(C)=N/OCc2cccc(C)n2)ccc1Cl [pyribencarb, reference compound] | 100% | 100% |
